Measurements from PubChem BioAssay (NCI).
Where “and” joins values, the source holds several entries; their conditions need not be identical. Equal values may be shown once.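 Exposure lasted 48 hours, with cells grown in 96-well plates and compounds tested at five concentrations. GI50: concentration for 50% inhibition of growth. TGI: concentration producing complete growth inhibition.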

How the values were obtained:
Experiment in all cases: NCI anticancer screen, dose series, 48 h
UACC-257 melanoma = test system: UACC-257 melanoma
DMS 273 small cell lung = test system: DMS 273 small cell lung
KM20L2 colon = test system: KM20L2 colon
SK-MEL-5 melanoma = test system: SK-MEL-5 melanoma
K-562 leukemia = test system: K-562 leukemia
LXFL 529 NSCLC = test system: LXFL 529 NSCLC
NCI/ADR-RES ovarian = test system: NCI/ADR-RES ovarian
HS 578T breast = test system: HS 578T breast
T-47D breast = test system: T-47D breast
BT-549 breast = test system: BT-549 breast

| Compound | TGI (UACC-257 melanoma) | TGI (DMS 273 small cell lung) [µM] | TGI (KM20L2 colon) [µM] | TGI (SK-MEL-5 melanoma) | TGI (K-562 leukemia) [µM] | TGI (LXFL 529 NSCLC) [µM] | TGI (NCI/ADR-RES ovarian) | TGI (HS 578T breast) | TGI (T-47D breast) | TGI (BT-549 breast) | GI50 (UACC-257 melanoma) | GI50 (NCI/ADR-RES ovarian) | GI50 (HS 578T breast) | GI50 (SK-MEL-5 melanoma) | GI50 (T-47D breast) | GI50 (K-562 leukemia) | GI50 (BT-549 breast) |
| --- | --- | --- | --- | --- | --- | --- | --- | --- | --- | --- | --- | --- | --- | --- | --- | --- | --- |
| CC(C)(C)[C@H]1CO[C@]2(C)[C@@H]3C[C@@H]3C(=O)N12 | > 100 µM | > 100 | > 100 | > 100 µM | > 100 | – | – | – | – | – | – | – | – | – | – | – | – |
| C[C@]12CCC(=O)C(O)=C1CC[C@@H]1[C@@H]2CC[C@]2(C)C(=O)CC[C@@H]12 | > 100 µM | – | > 100 | > 100 µM | > 100 | > 100 | > 100 µM | > 100 µM | > 100 µM | > 100 µM | – | – | – | – | – | – | – |
| Cc1ccc2c(=O)c3cccc(CC(=O)O)c3oc2c1C | > 100 µM | – | – | > 100 µM | > 100 | – | > 100 µM | > 100 µM | > 100 µM | > 100 µM | > 100 µM | > 100 µM | > 100 µM | > 100 µM | > 100 µM | > 100 µM | > 100 µM |
| O=C1c2ccccc2-c2c1c1ccccc1c(=O)n2CCNCCNCCn1c2c(c3ccccc3c1=O)C(=O)c1ccccc1-2 | > 48.4 µM | – | – | 19.9 µM | > 100 | – | 11.1 µM | 38.5 µM | 41.5 µM | 17.4 µM | 11.3 µM | 1.11 µM | 4.28 µM | 0.957 µM | 18.1 µM | 0.33 µM | 3.47 µM |
| O=C1c2ccccc2-c2c1c1ccccc1c(=O)n2CCCN1CCOCC1 | > 100 µM | – | – | > 95 µM | > 100 | – | > 100 µM | 14.8 µM | 97.4 µM | 25.5 µM | > 100 µM | 18.2 µM | 4.15 µM | 12.3 µM | 19.6 µM | > 100 µM | 8 µM |
| COc1ccc(/C=C\c2cc(OC)c(OC)c(OC)c2)cc1OCC(=O)Nc1nc2ccc(C(F)(F)F)cc2s1 | > 100 µM | – | – | 13.9 µM | > 100 | – | 5.8 µM | > 100 µM | > 100 µM | > 100 µM | 40 µM | 2.12 µM | 4.18 µM | 2.84 µM | 4.79 µM | 3.3 µM | 5.23 µM |
| CNC(=O)c1cccc(-c2ccc3c(N4CCOC[C@@H]4C)nc(N4CCOC[C@@H]4C)nc3n2)c1 | 1.21 µM and 1.69 µM and 0.487 µM | – | – | 0.718 µM and 0.99 µM and 2.87 µM | > 100 | – | 3.56 µM and 5.12 µM and > 25.1 µM | 0.448 µM and 0.32 µM and 0.459 µM | 0.246 µM and 0.212 µM and 0.103 µM | 1.38 µM and 1.08 µM and 0.648 µM | 0.0518 µM and 0.188 µM and 0.0589 µM | 0.24 µM and 0.412 µM and 0.371 µM | 0.0627 µM and 0.0618 µM and 0.116 µM | 0.109 µM and 0.17 µM and 0.176 µM | 0.0168 µM and 0.0287 µM and 0.0186 µM | 0.499 µM and 0.372 µM and 0.445 µM | 0.0436 µM and 0.0953 µM and 0.0614 µM |
| COC(=O)Nc1nc2ccccc2c(=O)[nH]1 | > 100 µM | – | – | > 100 µM | > 100 | – | > 100 µM | > 100 µM | > 100 µM | > 100 µM | – | – | – | – | – | – | – |
| C[C@]12CC[C@@H]3c4ccc(O)cc4CC[C@H]3[C@@H]1CC[C@@H]2NS(=O)(=O)Cc1ccc(Cl)cc1 | 8.08 µM | – | – | 3.45 µM | 21.3 | – | 10.7 µM | 7.46 µM | 8.11 µM | 5.74 µM | 2.59 µM | 2.69 µM | 2.4 µM | 1.77 µM | 2.85 µM | 2.99 µM | 2.35 µM |
